What was measured:
HER2YVMA = HER2YVMA (Homo sapiens, UniProt P04626, INS775YVMA); assay: HER2 signaling (pHER2) in BEAS2B-HER2YVMA cells; assay type: cell-based; design: expressed in transfected cells; host or cells: HEK293 (pool), Ba/F3 (clones), BEAS2B (clones); lentiviral vector pCDH-CMV-MCS-EF1-Neo; settings: read-out: BEAS2B YVMA pHER2 EC50
Method: Cell culture, plasmid cloning, and lentiviral transduction were carried out according to standard procedures. The Human HER2 cDNA construct in pCMV6-Entry for the HER2 wildtype (WT) expression was obtained from Origene. The HER2 cDNA including the 12-nucleotide insertion corresponding to YVMA insertion (HER2YVMA) was codon optimized, synthesized and cloned by GenScript (Piscataway, NJ) in pcDNA3.1. The lentiviral constructs expressing HER2YVMA and HER2 WT were sub-cloned using PCR at System Biosciences (SBI, Mountainview, CA) into lentiviral vectors pCDH-CMV-MCS-EF1-Neo and lentiviral particles were generated.
Engineered lines expressing HER2YVMA and HER2 WT were prepared in HEK293 (human embryonic kidney cells), Ba/F3 (Interleukin 3 (IL3)-dependent murine pro B cell line), and BEAS2B (primary immortalized human bronchial epithelial cell line). […]
HER2 signaling was assessed in BT474 and N87 cell lines which endogenously overexpress the HER2 wildtype (WT) protein, in NCI-H1781 cells which endogenously expresses a HER2 mutant protein containing a VC insertion in the kinase domain (HER2VC or G776delinsVC), and in engineered cell lines transduced to express the Her2 mutant protein containing the YVMA insertion (Hek293-HER2YVMA and BEAS2B-HER2YVMA). […]
HER2 signaling was evaluated using phospho (Tyr1248)/total ErbB2 whole cell lysate MSD plates (Meso-Scale Discovery, Gaithersburg, MD). […]

HER2 = molecular target: T1, HER2 (Homo sapiens, UniProt P04626); assay: HER2 occupancy assay in BT474 cells; assay type: cell-based; settings: concentration at which 50% of HER2 is irreversible bound, read-out: BT474 HER2 Occ
T1 construct: BT474 and N87 cell lines which endogenously overexpress the HER2 wildtype (WT) protein; endogenous in cells; host or cells: BT474, N87
T1 sequence (P04626 23-1255): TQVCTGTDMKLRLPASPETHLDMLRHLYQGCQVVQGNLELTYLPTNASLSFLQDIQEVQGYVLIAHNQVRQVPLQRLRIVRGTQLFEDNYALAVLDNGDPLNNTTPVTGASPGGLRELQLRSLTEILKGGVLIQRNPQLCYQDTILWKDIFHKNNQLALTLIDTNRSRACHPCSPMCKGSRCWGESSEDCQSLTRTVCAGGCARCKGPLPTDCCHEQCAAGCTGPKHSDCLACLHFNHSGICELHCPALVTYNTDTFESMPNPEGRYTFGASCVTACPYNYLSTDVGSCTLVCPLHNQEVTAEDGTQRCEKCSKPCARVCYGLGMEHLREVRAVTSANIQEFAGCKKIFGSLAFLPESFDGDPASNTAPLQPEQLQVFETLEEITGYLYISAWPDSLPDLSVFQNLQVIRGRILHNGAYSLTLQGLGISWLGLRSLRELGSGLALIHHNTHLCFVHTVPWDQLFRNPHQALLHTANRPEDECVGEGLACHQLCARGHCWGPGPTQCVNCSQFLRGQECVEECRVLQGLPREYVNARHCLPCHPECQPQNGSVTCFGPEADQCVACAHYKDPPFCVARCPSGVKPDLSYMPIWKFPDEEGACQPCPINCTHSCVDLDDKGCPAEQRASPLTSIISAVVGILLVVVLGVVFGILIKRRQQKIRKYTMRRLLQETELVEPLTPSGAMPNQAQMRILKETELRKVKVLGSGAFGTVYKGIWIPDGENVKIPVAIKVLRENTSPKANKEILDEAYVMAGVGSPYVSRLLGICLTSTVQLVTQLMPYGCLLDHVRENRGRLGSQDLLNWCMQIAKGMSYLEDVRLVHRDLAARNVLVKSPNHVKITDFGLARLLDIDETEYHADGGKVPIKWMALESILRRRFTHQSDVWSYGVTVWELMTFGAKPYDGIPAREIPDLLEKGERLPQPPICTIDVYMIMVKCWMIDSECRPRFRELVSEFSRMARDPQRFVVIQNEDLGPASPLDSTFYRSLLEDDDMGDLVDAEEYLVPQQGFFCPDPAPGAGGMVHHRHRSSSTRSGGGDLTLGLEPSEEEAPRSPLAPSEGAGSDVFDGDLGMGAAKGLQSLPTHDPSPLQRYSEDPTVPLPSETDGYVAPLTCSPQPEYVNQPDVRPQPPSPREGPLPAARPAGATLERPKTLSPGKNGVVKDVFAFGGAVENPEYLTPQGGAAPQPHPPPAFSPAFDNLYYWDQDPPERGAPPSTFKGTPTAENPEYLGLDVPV
Method: In order to assess free HER2 protein, a biotinylated probe was utilized. BT474, N87, and Ba/F3-HER2YVMA cells were treated with test compound as described for HER2 signaling. After compound treatment, cells were washed three times with cold phosphate buffer saline (PBS, Life Technologies, Carlsbad, CA), and lysed in modified occupancy lysis buffer prepared with an irreversible biotinylated tool compound (1 μM) in 25 mM Tris pH 7.5, 150 mM NaCl, 1% Triton, and supplemented with cOmplete, EDTA-free Protease inhibitor cocktail (Roche), Phosphatase Inhibitor Cocktails 2 and 3 (Sigma-Aldrich), and 1 mM PMSF (Sigma-Aldrich).
To determine % occupancy, lysates were loaded into duplicate plates of the phospho (Tyr1248)/total ErbB2 whole cell lysate MSD kit (Meso-Scale Discovery) and incubated overnight. Plates were washed and incubation with either HER2-sulfoTag (1:50, Meso Scale Discovery) or Strep-Sulfo Tag (1:1000, Meso Scale Discovery), for detection of […]. A standard curve of untreated cells in serial dilution was included in each plate to independently fit streptavidin (Free HER2) and total HER2 MSD signals; non-specific signal (BSA control spots) was subtracted from each well. Free HER2 was then normalized by total HER2 for each sample. The results are reported as % DMSO control. The normalized data was fitted using a sigmoidal curve analysis program (Graph Pad Prism version 6) with variable Hill slope to determine EC50 values. The results are provided in Table 4, under columns titled “BT474-HER2 Occ”, “N87-HER2 Occ”, and “Ba/F3 YVMA-HER2 Occ”. HER2 Occ is the concentration of test compound at which 50% of HER2 is irreversible bound.

Chain of HER2YVMA (P04626 with tags, fused parts or gaps INS775YVMA): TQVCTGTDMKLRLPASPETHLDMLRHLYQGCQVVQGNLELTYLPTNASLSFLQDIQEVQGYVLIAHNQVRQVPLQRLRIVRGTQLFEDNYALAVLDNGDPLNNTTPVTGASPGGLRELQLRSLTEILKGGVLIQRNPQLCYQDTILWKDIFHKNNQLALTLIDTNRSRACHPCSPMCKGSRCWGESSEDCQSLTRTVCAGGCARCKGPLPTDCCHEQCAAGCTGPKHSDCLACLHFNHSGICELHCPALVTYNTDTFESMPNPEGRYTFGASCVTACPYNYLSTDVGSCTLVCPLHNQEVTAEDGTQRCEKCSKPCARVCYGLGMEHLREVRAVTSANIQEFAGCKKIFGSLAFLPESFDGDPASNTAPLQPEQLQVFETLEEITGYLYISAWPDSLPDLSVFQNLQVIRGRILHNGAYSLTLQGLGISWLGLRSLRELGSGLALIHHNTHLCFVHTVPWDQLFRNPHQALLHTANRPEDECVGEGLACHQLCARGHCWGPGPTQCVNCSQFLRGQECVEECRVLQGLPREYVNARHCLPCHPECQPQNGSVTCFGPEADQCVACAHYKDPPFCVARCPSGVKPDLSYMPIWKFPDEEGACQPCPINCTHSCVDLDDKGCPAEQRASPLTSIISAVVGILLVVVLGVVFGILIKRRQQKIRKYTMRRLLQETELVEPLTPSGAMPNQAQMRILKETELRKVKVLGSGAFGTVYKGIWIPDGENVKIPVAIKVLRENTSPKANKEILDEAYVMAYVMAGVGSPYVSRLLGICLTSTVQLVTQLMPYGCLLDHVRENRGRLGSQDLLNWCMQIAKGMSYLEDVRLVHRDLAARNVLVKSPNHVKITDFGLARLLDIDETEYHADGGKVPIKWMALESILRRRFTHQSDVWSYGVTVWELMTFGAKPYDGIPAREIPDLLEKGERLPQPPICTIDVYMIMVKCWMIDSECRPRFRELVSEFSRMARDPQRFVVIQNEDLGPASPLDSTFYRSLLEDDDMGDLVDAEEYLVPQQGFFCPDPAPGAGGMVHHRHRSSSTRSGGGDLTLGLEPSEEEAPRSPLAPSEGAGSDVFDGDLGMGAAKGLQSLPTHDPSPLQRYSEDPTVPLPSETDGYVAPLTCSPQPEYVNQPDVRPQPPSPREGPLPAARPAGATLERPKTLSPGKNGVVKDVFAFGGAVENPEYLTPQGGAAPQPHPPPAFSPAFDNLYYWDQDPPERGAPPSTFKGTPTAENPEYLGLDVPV

| SMILES | EC50 (HER2YVMA) [nM] | EC50 (HER2) [nM] |
| --- | --- | --- |
| Cc1ccc(Oc2ccc(Nc3ncnc4sc5c(c34)CCN(C(=O)/C=C/CN(C)C)C5)cc2C)cn1 [Compound 8, (E)-4-(Dimethylamino)-1-(4-((3-methyl-4-((6-methylpyridin-3-yl)oxy)phenyl)amino)-5,6-dihydropyrido[4′,3′:4,5]thieno[2,3-d]pyrimidin-7(8H)-yl)but-2-en-1-one] | < 100 | < 100 |
| Cc1cc(Nc2ncnc3sc4c(c23)CCN(C(=O)/C=C/CN2CCOCC2)C4)ccc1Oc1ccc2ncnn2c1 [Compound 12] |  | < 100 |

— patent US20240391931A1 (Bristol-Myers Squibb Company, priority 2021, published 2024)
